Mutagenic call data for 3 molecules are collected here from PubChem BioAssay AID1259407 (Chemical Carcinogenesis Research Information System (CCRIS), 2018).

The subject of the data set is CCRIS mutagenicity, Ames/micronucleus/aberration tests. The experiment in a line: CCRIS mutagenicity studies.

Active and inactive are the calls of the source. How the calls were made is not given here.

For `CC(C)(OO)c1ccccc1`, the mutagenic call (Test System: AMES SALMONELLA TYPHIMURIUM, Strain/Indicator: TA97A, Metabolic Activation: RAT LIVER S-9, AROCLOR 1254, Method: PREINCUBATION) was “active; positive”; the mutagenic call (Test System: AMES SALMONELLA TYPHIMURIUM, Strain/Indicator: TA98, Metabolic Activation: NONE, Method: FLUCTUATION (MICROTITER)) is “active; positive”; the mutagenic call (Test System: AMES SALMONELLA TYPHIMURIUM, Strain/Indicator: TA98, Metabolic Activation: RAT LIVER S-9, AROCLOR 1254, Method: FLUCTUATION (MICROTITER)) is “inactive; negative”; the mutagenic call (Test System: AMES SALMONELLA TYPHIMURIUM, Strain/Indicator: TA104, Metabolic Activation: RAT LIVER S-9, AROCLOR 1254, Method: PREINCUBATION) is “active; positive”; the mutagenic call (Test System: AMES SALMONELLA TYPHIMURIUM, Strain/Indicator: TA1537, Metabolic Activation: NONE, Method: FLUCTUATION (MICROTITER)) is “active; positive”; the mutagenic call (Test System: AMES SALMONELLA TYPHIMURIUM, Strain/Indicator: TA1537, Metabolic Activation: RAT LIVER S-9, AROCLOR 1254, Method: FLUCTUATION (MICROTITER) was “active; positive”. Besides, the mutagenic call is, setting by setting: (Test System: AMES SALMONELLA TYPHIMURIUM, Strain/Indicator: TA2638A, Metabolic Activation: NONE, Method: STANDARD PLATE) “active; positive”; (Test System: AMES SALMONELLA TYPHIMURIUM, Strain/Indicator: TA7001, Metabolic Activation: NONE, Method: FLUCTUATION (MICROTITER)) “inactive; negative”; (Test System: AMES SALMONELLA TYPHIMURIUM, Strain/Indicator: TA7001, Metabolic Activation: RAT LIVER S-9, AROCLOR 1254, Method: FLUCTUATION (MICROTITER)) “active; positive”; (Test System: AMES SALMONELLA TYPHIMURIUM, Strain/Indicator: TA7002, Metabolic Activation: NONE, Method: FLUCTUATION (MICROTITER)) “active; positive”; (Test System: AMES SALMONELLA TYPHIMURIUM, Strain/Indicator: TA7002, Metabolic Activation: RAT LIVER S-9, AROCLOR 1254, Method: FLUCTUATION (MICROTITER)) “inactive; negative”; (Test System: AMES SALMONELLA TYPHIMURIUM, Strain/Indicator: TA7003, Metabolic Activation: NONE, Method: FLUCTUATION (MICROTITER)) “inactive; negative”. In addition, the mutagenic call reads like this: (Test System: AMES SALMONELLA TYPHIMURIUM, Strain/Indicator: TA7003, Metabolic Activation: RAT LIVER S-9, AROCLOR 1254, Method: FLUCTUATION (MICROTITER)) “inactive; negative”; (Test System: AMES SALMONELLA TYPHIMURIUM, Strain/Indicator: TA7004, Metabolic Activation: NONE, Method: FLUCTUATION (MICROTITER)) “active; positive”; (Test System: AMES SALMONELLA TYPHIMURIUM, Strain/Indicator: TA7004, Metabolic Activation: RAT LIVER S-9, AROCLOR 1254, Method: FLUCTUATION (MICROTITER)) “active; positive”; (Test System: AMES SALMONELLA TYPHIMURIUM, Strain/Indicator: TA7005, Metabolic Activation: NONE, Method: FLUCTUATION (MICROTITER)) “active; positive”; (Test System: AMES SALMONELLA TYPHIMURIUM, Strain/Indicator: TA7005, Metabolic Activation: RAT LIVER S-9, AROCLOR 1254, Method: FLUCTUATION (MICROTITER)) “active; positive”; (Test System: AMES SALMONELLA TYPHIMURIUM, Strain/Indicator: TA7006, Metabolic Activation: NONE, Method: FLUCTUATION (MICROTITER)) “active; positive”. In addition, the mutagenic call is “active; positive” (Test System: AMES SALMONELLA TYPHIMURIUM, Strain/Indicator: TA7006, Metabolic Activation: RAT LIVER S-9, AROCLOR 1254, Method: FLUCTUATION (MICROTITER)); “active; positive” (Test System: E. COLI, Strain/Indicator: WP2 (PKM101), Metabolic Activation: NONE, Method: STANDARD PLATE); “active; positive” (Test System: E. COLI, Strain/Indicator: WP2 UVRA (PKM101), Metabolic Activation: NONE, Method: STANDARD PLATE).

Regarding `C=CCC1=C(C)C(OC(=O)[C@@H]2[C@@H](C=C(C)C)C2(C)C)CC1=O` (stereo partly specified), the mutagenic call runs as follows: (Test System: AMES SALMONELLA TYPHIMURIUM, Strain/Indicator: TA97, Metabolic Activation: NONE, Method: STANDARD PLATE) “active; positive”; (Test System: AMES SALMONELLA TYPHIMURIUM, Strain/Indicator: TA97, Metabolic Activation: RAT, LIVER, S-9, PHENOBARBITONE, Method: STANDARD PLATE) “active; positive”; (Test System: AMES SALMONELLA TYPHIMURIUM, Strain/Indicator: TA98) “active; positive”; (Test System: AMES SALMONELLA TYPHIMURIUM, Strain/Indicator: TA98, Metabolic Activation: NONE) “inactive; negative”; (Test System: AMES SALMONELLA TYPHIMURIUM, Strain/Indicator: TA98, Metabolic Activation: NONE, Method: MICROSUSPENSION) “inactive; negative”; (Test System: AMES SALMONELLA TYPHIMURIUM, Strain/Indicator: TA98, Metabolic Activation: NONE, Method: STANDARD PLATE) “inactive; negative”. The mutagenic call reads like this: (Test System: AMES SALMONELLA TYPHIMURIUM, Strain/Indicator: TA98, Metabolic Activation: RAT, LIVER, S-9, AROCLOR 1254, Method: STANDARD PLATE) “inactive; negative”; (Test System: AMES SALMONELLA TYPHIMURIUM, Strain/Indicator: TA98, Metabolic Activation: RAT, LIVER, S-9, PHENOBARBITONE, Method: STANDARD PLATE) “inactive; negative”; (Test System: AMES SALMONELLA TYPHIMURIUM, Strain/Indicator: TA98, Metabolic Activation: S-9, Method: MICROSUSPENSION) “inactive; negative”; (Test System: AMES SALMONELLA TYPHIMURIUM, Strain/Indicator: TA100) “active; positive”; (Test System: AMES SALMONELLA TYPHIMURIUM, Strain/Indicator: TA100, Metabolic Activation: NONE) “active; positive”; (Test System: AMES SALMONELLA TYPHIMURIUM, Strain/Indicator: TA100, Metabolic Activation: NONE, Method: MICROSUSPENSION) “inactive; negative”. Besides, the mutagenic call (Test System: AMES SALMONELLA TYPHIMURIUM, Strain/Indicator: TA100, Metabolic Activation: RAT, LIVER, S-9, AROCLOR 1254, Method: STANDARD PLATE) is “active; positive”; the mutagenic call (Test System: AMES SALMONELLA TYPHIMURIUM, Strain/Indicator: TA100, Metabolic Activation: RAT, LIVER, S-9, PHENOBARBITONE, Method: STANDARD PLATE) is “active; positive”; the mutagenic call (Test System: AMES SALMONELLA TYPHIMURIUM, Strain/Indicator: TA100, Metabolic Activation: S-9, Method: MICROSUSPENSION) is “inactive; negative”; the mutagenic call (Test System: AMES SALMONELLA TYPHIMURIUM, Strain/Indicator: TA100, Metabolic Activation: S-9 MIX, Method: STANDARD PLATE) was “active; positive”; the mutagenic call (Test System: AMES SALMONELLA TYPHIMURIUM, Strain/Indicator: TA104, Metabolic Activation: NONE, Method: STANDARD PLATE) was “inactive; negative”; the mutagenic call (Test System: AMES SALMONELLA TYPHIMURIUM, Strain/Indicator: TA104, Metabolic Activation: RAT, LIVER, S-9, PHENOBARBITONE, Method: STANDARD PLATE) was “active; positive”. In addition, the mutagenic call was “inactive; negative” (Test System: AMES SALMONELLA TYPHIMURIUM, Strain/Indicator: TA1535, Metabolic Activation: NONE, Method: STANDARD PLATE); “inactive; negative” (Test System: AMES SALMONELLA TYPHIMURIUM, Strain/Indicator: TA1535, Metabolic Activation: RAT, LIVER, S-9, AROCLOR 1254, Method: STANDARD PLATE); “inactive; negative” (Test System: AMES SALMONELLA TYPHIMURIUM, Strain/Indicator: TA1537, Metabolic Activation: NONE, Method: STANDARD PLATE); “inactive; negative” (Test System: AMES SALMONELLA TYPHIMURIUM, Strain/Indicator: TA1537, Metabolic Activation: RAT, LIVER, S-9, AROCLOR 1254, Method: STANDARD PLATE); “inactive; negative” (Test System: E. COLI, Strain/Indicator: WP2, Metabolic Activation: NONE, Method: STANDARD PLATE); “inactive; negative” (Test System: E. COLI, Strain/Indicator: WP2, Metabolic Activation: RAT, LIVER, S-9, AROCLOR 1254, Method: STANDARD PLATE).

As for `CC1(C)[C@H](C(=O)O[C@H](C#N)c2cccc(Oc3ccccc3)c2)[C@@H]1C=C(Cl)Cl`, the mutagenic call (End Point: In vitro micronucleus, Test System: Human peripheral blood lymphocytes) was “active; positive. commercial product containing 10% alpha-cypermethrin in xylene emulsi”.
